This is an account of results in patent US4824944A, “Antineoplastic enamine derivatives of daunorubicin and adriamycin” (Politechnika Gdanska, priority 1987, dated 1989).

Data set [1] deals with cardiac muscle of rats. Conditions: i.p., three dosage levels (0.2, 10, 20 mg/kg), H+E, light and polarizing microscopes; cited from earlier work.
The subject of data set [2] is cardiac muscle of rats. The data set can be described thus: Examination of the cardiac muscle of rats after intraperitoneal administration (cardiotoxicity). It counts as in vivo. Particulars: i.p., 0.2, 10 and 20 mg/kg, versus daunorubicin. From the text:
Preparations from cardiac muscle tinted with H+E have been examined under light and polarizing microscopes.

A further data set concerns murine leukemia P-388. Description: Anticancer activity in mice with leukemia P-388, survival time (T/C). In kind it is in vivo. Particulars: for T/C (second value, in parentheses): not explained. On the procedure:
(§1) The following Table I sets forth the comparative results of the effectiveness of the parent antibiotic, daunorubicin, in the inhibition of the growth of the cancerous cells of murine leukemia P-388 in mice versus the anticancer activity of enamine derivatives of daunorubicin according to the present invention. ED50 denotes the concentration of the compound being tested leading to 50 percent inhibition of cancerous cell growth at 48 hours incubation time of the compound being tested. LD50 indicates the dosage of the tested compounds which cause death after 24 hours of one-half of the number of mice which have been intraperitonically administered the subject compound. T/C in percent represents the ratio of mean survival time of the group of treated mice versus the group of untreated mice.

Data set [3] is described as follows: Acute toxicity in mice after intraperitoneal administration (LD50, 24 hours). In kind it is in vivo. Particulars: mouse, in vivo, ip; mice, intraperitoneal, death of one-half after 24 hours. The protocol:
as §1

Another data set concerns mice. Described as above. In kind it is in vivo. Particulars: daunorubicin versus the inventive derivatives. On the procedure:
as §1

As a reminder, the T/C is the ratio of treated to control. The LD50 is the dose expected to kill half of the subjects tested. Read a low LD50 as greater toxicity. As for `CCOC(=O)C=C(C)N[C@H]1C[C@H](O[C@H]2C[C@](O)(C(C)=O)Cc3c(O)c4c(c(O)c32)C(=O)c2c(OC)cccc2C4=O)O[C@@H](C)[C@H]1O` [N-(1-carboethoxy-propen-1-yl-2)-daunorubicin], the “subsegmentary contractions / disturbances in heart rhythm” value with cardiac muscle of rats [1] was “does not cause said disturbances, the cardiac muscle evidencing a regular and alternating system of isotropic and anizotropic fringes”. Moreover, in the data set with cardiac muscle of rats [2], the “morphological and ultrastructural changes to muscular tissue” value was “considerably less morphological and ultrastructural changes to muscular tissue than does the initial daunorubicin”. In addition, the T/C is given as 94% with murine leukemia P-388 (Dose (mg/kg) 3 130); 103% in the data set on murine leukemia P-388 (Dose (mg/kg) 6 250); 103% in the data set with murine leukemia P-388 (Dose (mg/kg) 12 500); 115% in the data set on murine leukemia P-388 (Dose (mg/kg) 25 000); 132% with murine leukemia P-388 (Dose (mg/kg) 50 000); 144% in the data set with murine leukemia P-388 (Dose (mg/kg) 100 000). In the data set on murine leukemia P-388 (Dose (mg/kg) 200 000), this compound returned a T/C of 102%. The “T/C (second value, in parentheses)” value in the data set with murine leukemia P-388 (Dose (mg/kg) 25 000) is listed as 119%; in the data set on murine leukemia P-388 (Dose (mg/kg) 50 000) it was 128%. Also, in data set [3], the LD50 at 24 h stood at 500 mg/kg.

`COc1cccc2c1C(=O)c1c(O)c3c(c(O)c1C2=O)C[C@@](O)(C(C)=O)C[C@@H]3O[C@H]1C[C@H](NC(C)=CC(C)=O)[C@H](O)[C@H](C)O1` [N--(penten-2-on-4 yl-2)-daunorubicin, N-(penten-2-on-4-yl-2) daunorubicin]: the T/C in the data set on murine leukemia P-388 (Dose (mg/kg) 3 130) came out at 131%; with murine leukemia P-388 (Dose (mg/kg) 6 250), 110%; in the data set on murine leukemia P-388 (Dose (mg/kg) 12 500), 119%; in the data set with murine leukemia P-388 (Dose (mg/kg) 25 000), 125%; with murine leukemia P-388 (Dose (mg/kg) 50 000), 118%; with murine leukemia P-388 (Dose (mg/kg) 100 000), 147%. Moreover, the T/C result with murine leukemia P-388 (Dose (mg/kg) 200 000) was “toxic”. For the same compound, the figures for the “T/C (second value, in parentheses)” value with murine leukemia P-388 (Dose (mg/kg) 25 000) and in the data set with murine leukemia P-388 (Dose (mg/kg) 50 000) were 131% and 144%, respectively. Besides, the LD50 at 24 h in data set [3] came to 500 mg/kg.

For the compound `COc1cccc2c1C(=O)c1c(O)c3c(c(O)c1C2=O)C[C@@](O)(C(C)=O)C[C@@H]3O[C@H]1C[C@H](N)[C@H](O)[C@H](C)O1` [Daunorubicin, daunorubicin], the “subsegmentary contractions / disturbances in heart rhythm” value in the data set with cardiac muscle of rats [1] is given as “leads to the formation of numerous subsegmentary contractions causing, in effect, disturbances in heart rhythm”. The T/C in the data set with murine leukemia P-388 (Dose (mg/kg) 3 130) stood at 108%; in the data set with murine leukemia P-388 (Dose (mg/kg) 6 250), 112%; in the data set with murine leukemia P-388 (Dose (mg/kg) 12 500), 112%; in the data set on murine leukemia P-388 (Dose (mg/kg) 25 000), 127%; with murine leukemia P-388 (Dose (mg/kg) 50 000) it was 102%. Further, in data set [3], the LD50 at 24 h is 135 mg/kg. Also, the “dosage level of toxic effects” value in the data set with mice is given as “occur at a far lower dosage level as opposed to the inventive derivatives”.
